Results from PMC7983974 (Basic & Clinical Pharmacology & Toxicology, 2020).

How the values were obtained:
Type in all cases: in vitro ADME
Details in all cases: 1 and 10 µmol L^−1
UGT1A4 = target: T1, UGT1A4 (Homo sapiens, UniProt P22310); assay: M1 formation from molidustat by recombinant UGT1A4
T1 sequence (P22310 29-534): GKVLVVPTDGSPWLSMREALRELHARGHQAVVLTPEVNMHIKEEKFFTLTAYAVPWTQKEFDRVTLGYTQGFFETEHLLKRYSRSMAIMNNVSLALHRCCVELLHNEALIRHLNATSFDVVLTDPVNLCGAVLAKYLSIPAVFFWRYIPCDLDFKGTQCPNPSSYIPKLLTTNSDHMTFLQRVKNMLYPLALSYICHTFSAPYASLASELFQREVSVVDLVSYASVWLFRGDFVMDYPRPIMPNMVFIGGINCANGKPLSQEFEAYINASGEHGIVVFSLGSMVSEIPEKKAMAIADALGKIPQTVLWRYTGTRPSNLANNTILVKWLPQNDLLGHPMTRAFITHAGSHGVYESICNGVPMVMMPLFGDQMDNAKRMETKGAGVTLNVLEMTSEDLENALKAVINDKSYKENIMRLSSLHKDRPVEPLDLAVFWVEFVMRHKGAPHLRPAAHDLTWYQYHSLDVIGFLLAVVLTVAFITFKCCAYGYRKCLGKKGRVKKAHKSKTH

UGT2B4 = target: T2, UGT2B4 (Homo sapiens, UniProt P06133); assay: M1 formation from molidustat by recombinant UGT2B4
T2 sequence (P06133 24-528): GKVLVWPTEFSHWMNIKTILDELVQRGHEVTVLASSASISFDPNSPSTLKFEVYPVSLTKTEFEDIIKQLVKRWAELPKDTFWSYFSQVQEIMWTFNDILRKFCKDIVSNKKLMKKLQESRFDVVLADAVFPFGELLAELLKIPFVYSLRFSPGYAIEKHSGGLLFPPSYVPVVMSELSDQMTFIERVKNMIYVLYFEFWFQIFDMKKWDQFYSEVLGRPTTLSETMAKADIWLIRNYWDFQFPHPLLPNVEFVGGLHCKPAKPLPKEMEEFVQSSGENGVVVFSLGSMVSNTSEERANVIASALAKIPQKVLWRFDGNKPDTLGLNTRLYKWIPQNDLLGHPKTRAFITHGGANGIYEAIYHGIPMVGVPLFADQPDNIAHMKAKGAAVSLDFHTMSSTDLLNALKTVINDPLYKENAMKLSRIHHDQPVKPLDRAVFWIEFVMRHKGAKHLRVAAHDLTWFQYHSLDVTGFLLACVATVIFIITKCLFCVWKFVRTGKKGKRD

UGT2B17 = target: T3, UGT2B17 (Homo sapiens, UniProt O75795); assay: M1 formation from molidustat by recombinant UGT2B17
T3 sequence (O75795 24-530): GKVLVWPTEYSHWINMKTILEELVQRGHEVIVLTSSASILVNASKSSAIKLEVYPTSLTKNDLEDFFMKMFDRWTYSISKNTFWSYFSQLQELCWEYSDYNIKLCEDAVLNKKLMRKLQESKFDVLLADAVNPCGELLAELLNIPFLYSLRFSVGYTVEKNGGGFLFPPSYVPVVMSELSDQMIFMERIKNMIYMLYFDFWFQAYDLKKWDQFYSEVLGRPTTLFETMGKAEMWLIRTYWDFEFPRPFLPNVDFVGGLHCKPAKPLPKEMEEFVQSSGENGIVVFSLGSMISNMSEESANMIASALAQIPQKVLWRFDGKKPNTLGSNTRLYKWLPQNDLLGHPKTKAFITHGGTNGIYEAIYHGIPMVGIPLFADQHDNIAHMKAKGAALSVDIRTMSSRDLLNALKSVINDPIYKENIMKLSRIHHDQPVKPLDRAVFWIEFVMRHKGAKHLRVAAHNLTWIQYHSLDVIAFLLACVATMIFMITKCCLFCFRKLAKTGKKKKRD

activity for glucuronidation of molidustat (UGT1A4): lacked measurable activity
activity for glucuronidation of molidustat (UGT2B4): lacked measurable activity
activity for glucuronidation of molidustat (UGT2B17): lacked measurable activity
Structure (SMILES): O=c1c(-n2ccnn2)c[nH]n1-c1cc(N2CCOCC2)ncn1 [Molidustat]
